Numbers after ± are expanded uncertainties.
Conditions: 101.33 kPa, Liquid, Vibrating tube method

mass density (323.15 K): 988.035 ± 0.053 kg/m3 | mass density (328.15 K): 985.693 ± 0.055 kg/m3 | mass density (333.15 K): 983.196 ± 0.057 kg/m3 | mass density (338.15 K): 980.551 ± 0.059 kg/m3 | mass density (343.15 K): 977.765 ± 0.061 kg/m3
SMILES: O [water]
